The subject of data set [1] is Meth A tumor-bearing mice. Description: Antitumor activity, Meth A tumor-bearing mice, i.v. every 4 days 4 times. Type of data set: in vivo, mouse. The note with it: Example 11, every 4 days 4 times. As for the experimental part:
(§1) Meth A tumor-bearing mice were prepared (7 mice per group) by subcutaneously transplanting 1×10^6 mouse fibrosarcoma Meth A cells into the right inguinal regions of BALB/c male mice (7-week old). On day 7, the drug complex of Example 9 dissolved in distilled water for injection was injected in the tail vein of the Meth A tumor-bearing mice every 4 days 4 times. On day 21 after the transplantation, tumor masses were excised and weighed to calculate the inhibition rate of tumor growth according to the following equation: inhibition rate of tumor growth (%)=[1-(average tumor weight of the group administered with the test sample/average tumor weight of control group)]×100.

For data set [2], the system named is Walker 256 tumor-bearing rats. Kind of data set: Releasing rate of spacers judged from efficacy of doxorubicin drug complexes or free doxorubicin at tumorous sites. The format is in vivo, rat. The following applies: for releasing rate of spacer: drug complexes bound with doxorubicin, Walker 256 tumor-bearing rats. The text has this:
Specific examples of the spacer are shown in the following table; however, the spacer used for the method for preparing the drug complexes of the present invention is not limited to those mentioned below, and it can be readily understood that one of ordinary skilled in the art can appropriately choose a spacer so as to achieve an optimum releasing rate of a drug compound. In the table, the left ends of peptide sequences are N-terminuses and the residues of drug compounds are bound to C-terminuses.D-Phe represents a D-phenylalanine residue and the other amino acids represent L-amino acids. The degrees of the releasing rate were judged from the degree of appearance of efficacy of the drug complexes bound with doxorubicin against Walker 256 tumor-bearing rats, or from the free doxorubicin concentration at tumorous sites of Walker 256 tumor-bearing rats.

Data set [3] concerns Meth A tumor-bearing mice. Kind of data set: Antitumor activity, Meth A tumor-bearing mice, single administration on day 7. Type of data set: in vivo, mouse. The note with it: for Inhibition rate: calculated based on the drug compound; for antitumor activity (in words) / effective dose-range (in words): single administration, compared to the drug compound, per se. The procedure: as §1
Meth A tumor-bearing mice (6 mice per group) were prepared according to a similar manner to that of Example 11 and the antitumor activity was compared to that obtained by single administration of the drug complexes of Examples 8 and 9 once on day 7.
Meth A tumor-bearing mice (6 mice per group) were prepared according to a similar manner to that of Example 11 and the antitumor activity of the drug complex of Example 15 was examined by single administration in a similar manner to that of Example 12.
Meth A tumor-bearing mice (6 mice per group) were prepared according to a similar manner to that of Example 1, and the antitumor activity of the drug complex of Example 41 was examined in the cases of single administration in a similar manner to that of Example 12, and its antitumor activity was compared to that of the drug compound, per se.
Meth A tumor-bearing mice (6 mice per group) were prepared according to a similar manner to that of Example 11, and the antitumor activity was examined according to a similar method to that in Example 12 by single administration of the drug complexes of Examples 29, 43, and 44, respectively.

Where [4] appears, read: Example 56 (table 8), 20 mg/kg single.
Where [5] appears, read: Example 56 (table 8), 40 mg/kg single.
The mark [6] stands for this setting: Example 56 (table 8), 80 mg/kg single.
Where [7] appears, read: Example 56 (table 8), 100 mg/kg single.

Where a name gives a salt, the structure may show the parent alone. Ends that are not written are not given here. Peptide text beside a SMILES is read from it. * marks the point of attachment. DW‑8089 = (1S,9S)-1-amino-9-ethyl-2,3-dihydro-9-hydroxy-1H,12H-benzo[de]pyrano[3',4':6,7]indolizino[1,2-b]quinoline-10,13(9H,15H)-dione, CC[C@@]1(O)C(=O)OCc2c1cc1n(c2=O)Cc2c-1nc1cccc3c1c2[C@@H](N*)CC3; Exatecan = CC[C@@]1(O)C(=O)OCc2c1cc1n(c2=O)Cc2c-1nc1cc(F)c(C)c3c1c2[C@@H](N*)CC3

`CC[C@@]1(O)C(=O)OCc2c1cc1n(c2=O)Cc2c-1nc1cc(F)c(C)c3c1c2[C@@H](NC(=O)CNC(=O)[C@H](Cc1ccccc1)NC(=O)CNC(=O)CN)CC3` [H)N-Gly-Gly-Phe-Gly-NH--A, 3'-N-(Gly-Gly-Phe-Gly)-NH--A (A--NH2 =DX-8951) Trifluoroacetic Acid Salt] (H-GGFG-Exatecan): the “antitumor activity (in words)” value in data set [1] is “not effective”.

On to -Ala-Gly-, for which the “releasing rate of spacer” value in data set [2] is recorded as “relatively low releasing rate”.

Turning to -Gly-Gly-, the “releasing rate of spacer” value in data set [2] is on record as “low releasing rate”.

As for -Gly-Gly-Gly-, the “releasing rate of spacer” value in data set [2] is on record as “low releasing rate”.

On to “-Gly-Gly-Gly-Gly-: spacer of drug complexes bound with doxorubicin (GGGG; not fully specified; printed as -Gly-Gly-Gly-Gly-; also: spacer between polysaccharide derivative and drug in drug complex)”, for which the “releasing rate of spacer” value in data set [2] is recorded as “low releasing rate”.

“-Gly-Gly-Gly-Gly-Gly-Gly-: spacer of drug complexes bound with doxorubicin”: the “releasing rate of spacer” value in data set [2] is on record as “relatively high releasing rate”.

Take “-Gly-Gly-Gly-Phe-: spacer of drug complexes bound with doxorubicin (GGGF; not fully specified; printed as -Gly-Gly-Gly-Phe-; also: spacer between polysaccharide derivative and drug in drug complex)”: in data set [2], the “releasing rate of spacer” value is “relatively low releasing rate”.

For the compound “-Gly-Gly-Gly-Phe-Gly-: spacer of drug complexes bound with doxorubicin (GGGFG; not fully specified; printed as -Gly-Gly-Gly-Phe-Gly-; also: spacer between polysaccharide derivative and drug in drug complex)”, the “releasing rate of spacer” value in data set [2] is given as “high releasing rate”.

For the compound “-Gly-Gly-Phe-Gly-: spacer of drug complexes bound with doxorubicin (GGFG; not fully specified; printed as -Gly-Gly-Phe-Gly-; also: spacer between polysaccharide derivative and drug in drug complex)”, in data set [2], the “releasing rate of spacer” value is “high releasing rate”. The “release of the drug compound (in words)” value in data set [2] (spacer for doxorubicin) is “can release the drug compound at high concentration in a short time”.

On to “-Gly-Gly-Phe-Phe-: spacer of drug complexes bound with doxorubicin (GGFF; not fully specified; printed as -Gly-Gly-Phe-Phe-; also: spacer between polysaccharide derivative and drug in drug complex)”, for which the “releasing rate of spacer” value in data set [2] is recorded as “relatively high releasing rate”.

In the case of -Gly-Phe-, the “releasing rate of spacer” value in data set [2] is “low releasing rate”.

With “-Gly-Phe-Gly-Gly-: spacer of drug complexes bound with doxorubicin (GFGG; not fully specified; printed as -Gly-Phe-Gly-Gly-; also: spacer between polysaccharide derivative and drug in drug complex)”, the “releasing rate of spacer” value in data set [2] was “high releasing rate”.

For the compound -Leu-Gly-, the “releasing rate of spacer” value in data set [2] is reported as “high releasing rate”.

With -Phe-Gly-, the “releasing rate of spacer” value in data set [2] was “high releasing rate”.

For “-Phe-Gly-Gly-Gly-: spacer of drug complexes bound with doxorubicin (FGGG; not fully specified; printed as -Phe-Gly-Gly-Gly-; also: spacer between polysaccharide derivative and drug in drug complex)”, in data set [2], the “releasing rate of spacer” value was “high releasing rate”.

As for -Phe-Phe-, in data set [2], the “releasing rate of spacer” value is “relatively low releasing rate”.

For “-Phe-Phe-Gly-Gly-: spacer of drug complexes bound with doxorubicin (FFGG; not fully specified; printed as -Phe-Phe-Gly-Gly-; also: spacer between polysaccharide derivative and drug in drug complex)”, the “releasing rate of spacer” value in data set [2] is reported as “high releasing rate”.

For -Pro-Gly-, in data set [2], the “releasing rate of spacer” value was “relatively low releasing rate”.

In the case of -Ser-Gly-, the “releasing rate of spacer” value in data set [2] is reported as “low releasing rate”.

For -Tyr-Gly-, the “releasing rate of spacer” value in data set [2] is “high releasing rate”.

As to “Carboxymethyldextran Polyalcohol-Gly-Gly-Gly-Phe-NH--A' (A--NH2 =)X-8951) ({carboxymethyldextran polyalcohol}-GGGF-Exatecan; also: N-terminus linked to carboxymethyldextran polyalcohol, C-terminus amide-linked to drug residue A' (DX-8951)) [Example 43]”, the Inhibition rate is reported as 75% in data set [3] (setting [4]), 82% in data set [3] (setting [5]), 92% in data set [3] (setting [6]) and 94% in data set [3] (setting [7]). The “antitumor activity (in words)” value in data set [3] is listed as “high antitumor activity”. In addition, the “effective dose-range (in words)” value in data set [3] is “broader effective dose-range”.

On to “Carboxymethyldextran Polyalcohol-Gly-Gly-Gly-Phe-NH--A' (A--NH2 =DX-8951) [Example 8] ({carboxymethyldextran polyalcohol}-GGGF-Exatecan; also: N-terminus linked to carboxymethyldextran polyalcohol, C-terminus amide-linked to drug residue A' (DX-8951))”, for which the Inhibition rate in data set [3] (Example 12 (Table 3), 5 mg/kg single) is recorded as 76%; in data set [3] (Example 12 (Table 3), 10 mg/kg single), 85%. Further, the “antitumor activity (in words)” value in data set [3] is given as “(Polysaccharide derivative)-Gly-Gly-Gly-Phe-NH--A'> the drug compound, per se”.

For “Carboxymethyldextran Polyalcohol-Gly-Gly-Gly-Phe-NH--A' (A--NH2 =DX-8951) [Example 29] ({carboxymethyldextran polyalcohol}-GGGF-Exatecan; also: N-terminus linked to carboxymethyldextran polyalcohol, C-terminus amide-linked to drug residue A' (DX-8951))”, the Inhibition rate is 79% in data set [3] (Example 56 (table 8), 5 mg/kg single); 89% in data set [3] (Example 56 (table 8), 10 mg/kg single); 99% in data set [3] (setting [4]); 99% in data set [3] (Example 56 (table 8), 30 mg/kg single). Moreover, the “antitumor activity (in words)” value in data set [3] is given as “high antitumor activity”. The “effective dose-range (in words)” value in data set [3] is “broader effective dose-range”.

For “Carboxymethyldextran Polyalcohol-Gly-Gly-Phe-Gly-NH--A' (A--NH2 =DW-8089) ({carboxymethyldextran polyalcohol}-GGFG-{DW‑8089}; also: N-terminus linked to carboxymethyldextran polyalcohol, C-terminus amide-linked to drug residue A' (DW-8089)) [Example 41]”, the Inhibition rate was 61% in data set [3] (Example 55 (table 7), 3.125 mg/kg single); 81% in data set [3] (Example 55 (table 7), 6.25 mg/kg single); 95% in data set [3] (Example 55 (table 7), 12.5 mg/kg single); 99% in data set [3] (Example 55 (table 7), 25 mg/kg single). Further, the “antitumor activity (in words)” value in data set [3] is recorded as “remarkably enhanced antitumor activity”. Further, the “effective dose-range (in words)” value in data set [3] is “broader effective dose-range”.

With “α-methylcarboxymethyldextran Polyalcohol-Gly-Gly-Gly-Phe-NH--A' (A--NH2 =DX-8951) [Example 44]”, the Inhibition rate in data set [3] (setting [4]) is 75%; in data set [3] (setting [5]) it was 97%; in data set [3] (setting [6]), 94%; in data set [3] (setting [7]), 96%. Besides, the “antitumor activity (in words)” value in data set [3] was “high antitumor activity”. In addition, the “effective dose-range (in words)” value in data set [3] is “broader effective dose-range”.
